Data as given in patent publication US20090030015A1, “NOVEL MULTI-CYCLIC COMPOUNDS” (REVOTAR BIOPHARMACEUTICALS AG, priority 2005, published 2009).

Key:
[1] = molecular target: T1, human L-Selectin-IgG-chimera (Homo sapiens, UniProt P14151); assay: Sialyl Lewis X Tyrosine Sulfate Assay (sLex TSA), L-selectin; assay type: binding; settings: sLexTSA
T1 construct: fused on or other part: human IgG Fc part, captured on the plate by goat anti human Fc antibody; a tag, no second protein
T1 sequence (P14151 39-318 limits assumed): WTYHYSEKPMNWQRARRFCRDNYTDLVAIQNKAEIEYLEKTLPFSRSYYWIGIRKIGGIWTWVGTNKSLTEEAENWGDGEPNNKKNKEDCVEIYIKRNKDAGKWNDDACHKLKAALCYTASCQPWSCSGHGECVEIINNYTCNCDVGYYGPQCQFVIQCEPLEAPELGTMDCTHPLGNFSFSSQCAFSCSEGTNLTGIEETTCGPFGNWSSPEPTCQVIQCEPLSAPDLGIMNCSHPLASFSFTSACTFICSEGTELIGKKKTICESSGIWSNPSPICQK
Experimental: (§1) Sialyl Lewis^X Tyrosine Sulfate Assay (sLe^x TSA):
(§2) Compounds of the present invention are assayed on a molecular level for their ability to inhibit the binding of P-, L-, or E-selectin chimeric molecules to sLe^x and tyrosinesulfate residues linked to a polymeric matrix as a PSGL-1 substitute. Selected IC50-values are determined.
(§3) Microtiter plates are coated overnight in carbonate buffer pH9.6 with goat anti human Fc mAB (10 μg/ml). After washing in assay buffer (25 mM 4-(2-hydroxyethyl)-1-piperazineethanesulfonic acid (HEPES), 150 mM NaCl, 1 mM CaCl2 pH7.4) and blocking (3% bovine serum albumin (BSA) in assay buffer) plates are incubated for 2 h at 37° C. with human P-Selectin-IgG-chimera (0.61 nM respectively 150 ng/mL) or human L-Selectin-IgG-chimera (0.61 nM respectively 89 ng/mL) or human E-Selectin-IgG-chimera (0.61 nM respectively 131 ng/mL). 5 μl of sLe^x-tyrosine sulfate polyacrylamide (1 mg/ml) carrying 15% sLe^x, 10% Tyrosine-sulfate and 5% biotin is complexed with 20 μl Streptavidin-Peroxidase solution (1 mg/ml) and 25 μl assay buffer without CaCl2. For use in the assay, the ligand complex is diluted 1:10000 in assay buffer and further diluted 1:1 with varying amounts of compounds in assay buffer incl. 2% DMSO. This mixture is added to the wells precoated with E- or P-selectin. After incubation for 2 h at 37° C., wells are washed for six times with in assay buffer incl. 0.005% Polyoxyethylenesorbitan monolaurate (TWEEN 20), developed for 10-15 min with 20 μl 3,3′,5,5′-tetramethylbenzidine (TMB)/H2O2 substrate solution and stopped with 20 μl 1M H2SO4. Bound sLe^x-Tyrosine sulfate ligand complex is determined by measuring optical density at 450 nm vs. 620 nm in a Fusion alpha-FP reader (sold from Packard Bioscience, Dreieich, Germany).

[2] = tested on: human E-selectin-IgG chimera; assay: Flow chamber assay, cell adhesion and rolling under flow conditions, E-selectin; assay type: cell-based; settings: normalized ratio of %-inhibition of compound divided by %-inhibition of bimosiamose; 125 μM compound; HL-60 cells; flow shear 1 dyne/cm^2
Experimental: (§4) Flow Chamber Assay/Cell Adhesion and Rolling Under Flow Conditions
(§5) To assess the capability of compounds to inhibit cell binding under dynamic conditions resembling the flow in a blood vessel, flow chamber assays addressing/testing binding of HL-60 cells/various cell lines to P-selectin, L-selectin and E-selectin chimeric molecules are performed.
(§6) Cell attachment under flow conditions is determined using a parallel flow chamber system. A 35 mm polystyrene culture dish is coated for 1 hour at room temperature with coating buffer (50 mM tris-(hydroxymethyl)aminomethane buffer (Tris), 150 mM NaCl, 2 mM CaCl2; pH 7.4) containing human E- or P-selectin-IgG chimera at concentrations of 2.5 μg/ml or 10 μg/ml, respectively. After removal of the coating solution non specific binding sites are blocked for an additional hour with 1% BSA in coating buffer at room temperature. After washing with assay buffer (“Roswell Park Memorial Institute 1640” (RPMI 1640)+10 mM HEPES) the dish is fitted into a parallel plate laminar flow chamber (sold from Glycotech, Rockville, Md.) and mounted on an inverted phase-contrast microscope (sold from Olympus, Hamburg, Germany) equipped with a CCD camera (JVC) that is connected to a PC. Employing a peristaltic pump (sold from Ismatec, Wertheim-Mondfeld, Germany) the re-circulating system is equilibrated with assay buffer containing 125 μM compound or vehicle control (DMSO). Cells (1 million/ml) are added to the chamber and allowed to distribute for 2 minutes at a high flow rate. The flow rate is then decreased resulting in a calculated flow shear of 1 dyne/cm^2. Video sequences of 10 low power fields are digitally recorded after 5 minutes continuous flow. The percentage of inhibition is calculated from the mean number of cells per field that attached to the coated dish surface in the presence versus absence of compound […].

[3] = tested on: human P-selectin-IgG chimera; assay: Flow chamber assay, cell adhesion and rolling under flow conditions, P-selectin; assay type: cell-based; settings: normalized ratio of %-inhibition of compound divided by %-inhibition of bimosiamose; 125 μM compound; HL-60 cells; flow shear 1 dyne/cm^2
Experimental: as §4, §5, §6

[4] = molecular target: T2, human P-Selectin-IgG-chimera (Homo sapiens, UniProt P16109); assay: Sialyl Lewis X Tyrosine Sulfate Assay (sLex TSA), P-selectin; assay type: binding; settings: sLexTSA
T2 sequence (P16109 42-771 limits assumed): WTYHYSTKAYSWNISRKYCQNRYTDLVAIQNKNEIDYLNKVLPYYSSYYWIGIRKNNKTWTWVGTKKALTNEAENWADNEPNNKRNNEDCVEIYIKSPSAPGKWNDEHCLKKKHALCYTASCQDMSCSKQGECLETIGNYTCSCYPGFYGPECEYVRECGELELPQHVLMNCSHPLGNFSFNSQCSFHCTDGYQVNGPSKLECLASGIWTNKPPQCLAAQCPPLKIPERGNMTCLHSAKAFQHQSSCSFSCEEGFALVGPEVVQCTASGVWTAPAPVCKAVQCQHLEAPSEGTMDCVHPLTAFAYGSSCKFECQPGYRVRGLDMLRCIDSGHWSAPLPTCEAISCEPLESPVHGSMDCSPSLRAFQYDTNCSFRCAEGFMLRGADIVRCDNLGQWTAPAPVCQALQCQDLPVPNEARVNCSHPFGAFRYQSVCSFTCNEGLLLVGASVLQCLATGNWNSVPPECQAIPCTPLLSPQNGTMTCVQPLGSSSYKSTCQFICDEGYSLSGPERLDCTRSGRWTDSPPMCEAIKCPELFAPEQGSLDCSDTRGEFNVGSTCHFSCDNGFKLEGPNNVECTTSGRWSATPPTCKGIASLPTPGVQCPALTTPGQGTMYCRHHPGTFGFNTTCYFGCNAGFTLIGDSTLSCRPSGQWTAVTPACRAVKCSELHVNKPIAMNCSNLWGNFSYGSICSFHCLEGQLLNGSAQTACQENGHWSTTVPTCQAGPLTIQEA
Experimental: as §1, §2, §3

| SMILES | IC50 [1] | E-Selectin [Ratio] [2] | P-Selectin [Ratio] [3] | IC50 [4] |
| --- | --- | --- | --- | --- |
| O=C(O)Cc1cccc(-c2cc(CCCCCCc3ccc(O[C@H]4O[C@H](CO)[C@@H](O)[C@H](O)[C@@H]4O)c(-c4cccc(CC(=O)O)c4)c3)ccc2O[C@H]2O[C@H](CO)[C@@H](O)[C@H](O)[C@@H]2O)c1 [Bimosiamose, bimosiamose, reference compound] | > 500 µM | – | – | – |
| Cc1oc(-c2ccc(NC(=O)Cc3ccc(O)cc3O)cc2)cc1C(=O)O [Compound 29, 5-{4-[2-(2,4-Dihydroxy-phenyl)-acetylamino]-phenyl}-2-methyl-furan-3-carboxylic acid] | – | 1.31 Ratio | 0.74 Ratio | – |
| Cc1oc(-c2ccc(NC(=O)Cc3cc(O)cc(O)c3)cc2)cc1C(=O)O [Compound 31, 5-{4-[2-(3,5-Dihydroxy-phenyl)-acetylamino]-phenyl}-2-methyl-furan-3-carboxylic acid] | – | 1.16 Ratio | 0.60 Ratio | – |
| COc1ccc(-c2cccc(C(=O)Nc3ccccc3-c3ccc(CC(=O)O)s3)c2)c(OC)c1 [Compound 62, (5-{2-[(2′,4′-Dimethoxy-biphenyl-3-carbonyl)-amino]-phenyl}-thiophen-2-yl)acetic acid] | 151 µM | 1.15 Ratio | 1.22 Ratio | 62.9 µM |
| O=C(O)Cc1ccc(-c2ccccc2NC(=O)c2cccc(-c3ccc(O)cc3O)c2)s1 [Compound 63, (5-{2-[(2′,4′-Dihydroxy-biphenyl-3-carbonyl)-amino]-phenyl}-thiophen-2-yl)acetic acid] | 157 µM | 1.31 Ratio | 1.95 Ratio | 81.2 µM |
| COC(=O)Cc1ccc(-c2ccccc2NC(=O)c2cccc(-c3ccc(O)cc3O)c2)s1 [Compound 64, (5-{2-[(2′,4′-Dihydroxy-biphenyl-3-carbonyl)-amino]-phenyl}-thiophen-2-yl)acetic acid methyl ester] | 62.3 µM | 1.34 Ratio | 1.70 Ratio | 50 µM |
| COc1ccc(-c2cccc(C(=O)Nc3ccccc3-c3ccc(C(=O)O)s3)c2)c(OC)c1 [Compound 66] | 152 µM | 1.21 Ratio | 0.76 Ratio | 67.8 µM |
| O=C(Nc1ccccc1-c1ccc(C(=O)O)s1)c1cccc(-c2ccc(O)cc2O)c1 [Compound 67] | 434 µM | 1.60 Ratio | 0.92 Ratio | 201 µM |
| O=C(O)Cc1ccc(-c2ccccc2NC(=O)Cc2cccc(-c3ccc(O)cc3O)c2)s1 [Compound 70, (5-{2-[2-(2′,4′-Dihydroxy-biphenyl-3-yl)-acetylamino]-phenyl}-thiophen-2-yl)-acetic acid] | – | 0.83 Ratio | 0.82 Ratio | 354 µM |
| COC(=O)Cc1ccc(-c2ccccc2NC(=O)c2cncc(-c3ccc(O)cc3O)c2)s1 [Compound 74, [5-(2-{[5-(2,4-Dihydroxy-phenyl)-pyridine-3-carbonyl]-amino}-phenyl)-thiophen-2-yl]-acetic acid methyl ester] | – | 0.68 Ratio | 1.02 Ratio | – |
| O=C(O)c1cccc(NC(=O)c2cccc(-c3ccc(O)cc3O)c2)c1 [Compound 79, 3-[(2′,4′-Dihydroxy-biphenyl-3-carbonyl)-amino]-benzoic acid] | – | 0.96 Ratio | 1.19 Ratio | – |
| O=C(O)Cc1ccc(-c2ccccc2NC(=O)c2cccc(-c3cc(O)cc(O)c3)c2)s1 [Compound 82, (5-{2-[(3′,5′-Dihydroxy-biphenyl-3-carbonyl)-amino]-phenyl}-thiophen-2-yl)-acetic acid] | – | 1.35 Ratio | 2.11 Ratio | – |
| O=C(Nc1ccccc1-c1ccc(C(=O)O)s1)c1cccc(-c2cc(O)cc(O)c2)c1 [Compound 85, 5-{2-[(3′,5′-Dihydroxy-biphenyl-3-carbonyl)-amino]-phenyl}-thiophene-2-carboxylic acid] | – | 1.20 Ratio | 1.90 Ratio | – |
| O=C(Nc1ccccc1-c1cccs1)c1cccc(-c2ccc(O)cc2O)c1 [Compound 87, 2′,4′-Dihydroxy-biphenyl-3-carboxylic acid (2-thiophen-2-yl-phenyl)-amide] | – | 1.24 Ratio | 1.05 Ratio | – |
| COc1ccc(-c2cccc(C(=O)Nc3cccc(-c4ccc(CC(=O)O)s4)c3)c2)c(OC)c1 [Compound 89, (5-{3-[(2′,4′-Dimethoxy-biphenyl-3-carbonyl)-amino]-phenyl}-thiophen-2-yl)-acetic acid] | – | 1.27 Ratio | 1.41 Ratio | – |
| O=C(O)Cc1ccc(-c2cccc(NC(=O)c3cccc(-c4ccc(O)cc4O)c3)c2)s1 [Compound 90, (5-{3-[(2′,4′-Dihydroxy-biphenyl-3-carbonyl)-amino]-phenyl}-thiophen-2-yl)-acetic acid] | 38.7 µM | – | – | 19.1 µM |
| Cc1oc(-c2ccc(NC(=O)c3cccc(-c4ccc(O)cc4O)c3)nc2)cc1C(=O)O [Compound 93, 5-{6-[(2′,4′-Dihydroxy-biphenyl-3-carbonyl)-amino]-pyridin-3-yl}-2-methyl-furan-3-carboxylic acid] | – | 0.86 Ratio | 1.13 Ratio | – |
| Cc1oc(-c2ccc(NC(=O)c3cccc(-c4ccc(O)cc4O)c3)cc2)cc1C(=O)O [Compound 96, 5-{4-[(2′,4′-Dihydroxy-biphenyl-3-carbonyl)-amino]-phenyl}-2-methyl-furan-3-carboxylic acid] | – | 1.13 Ratio | 1.02 Ratio | – |
| O=C(Nc1cccc(C(F)(F)F)c1)c1cccc(-c2ccc(O)cc2O)c1 [Compound 98, 2′,4′-Dihydroxy-biphenyl-3-carboxylic acid (3-trifluoromethyl-phenyl)-amide] | – | 1.26 Ratio | 1.00 Ratio | – |
